Reference: US20110166121A1 (LG LIFE SCIENCES LTD., priority 2008, published 2011)

Tests used:
[1] = system: Human platelet aggregation caused by ADP; test: Inhibition of ADP-induced platelet aggregation (Mimic-human PRP); format: cell-based; details: 20 μM ADP; for Ki: human platelet concentrate diluted with PPP, absorption at 595 nm
In short: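 Human PRP diluted with PPP to 3–4×10^8 platelets/mL was preincubated 20 min at room temperature with compound (0.01–30 μM, DMSO), then stimulated with 20 μM ADP. Aggregation read as A595 increase at 3 min versus 0 and 20 μM ADP controls; Ki from sigmoidal non-linear regression.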

Human P2Y12 receptor = biological target: T1, Human P2Y12 receptor (Homo sapiens, UniProt Q9H244); test: Human P2Y12 receptor cell membrane binding assay with [3H] 2-Mes-ADP; details: 1 nM [3H] 2-Mes-ADP, membranes of HEK cells expressing P2Y12 receptor; read-out: Binding activity (IC50)
T1 construct: expressed in transfected cells; host or cells: HEK cells
T1 sequence (Q9H244 whole entry): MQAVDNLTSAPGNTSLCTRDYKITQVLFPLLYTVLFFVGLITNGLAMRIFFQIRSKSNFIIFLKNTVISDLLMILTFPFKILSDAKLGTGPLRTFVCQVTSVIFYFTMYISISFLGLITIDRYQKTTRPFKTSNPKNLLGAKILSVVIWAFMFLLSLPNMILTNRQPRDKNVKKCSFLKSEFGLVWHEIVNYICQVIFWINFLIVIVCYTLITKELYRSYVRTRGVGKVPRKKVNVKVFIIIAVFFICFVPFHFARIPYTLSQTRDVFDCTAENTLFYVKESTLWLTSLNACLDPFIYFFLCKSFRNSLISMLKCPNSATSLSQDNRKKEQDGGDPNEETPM
In short: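 Membranes from HEK cells expressing human P2Y12 were incubated with compound and 1 nM [3H]2-MeS-ADP for 1 h at room temperature. Bound radioactivity was collected by GF/B filtration.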

Row | Structure (SMILES) | Ki [1] | IC50 (Human P2Y12 receptor) | inhibition at 40 µM ([1]; Homo sapiens, Platelet, 40 μM compound)
1 | CCCc1cc2c(N3CCn4c(nnc4C(F)(F)F)C3)nc(N3CC[C@H](NCCO)C3)nc2s1 [Example 1-99, 2-{(S)-1-[6-Propyl-4-(3-trifluoromethyl-5,6-dihydro-8H-[1,2,4]triazolo[4,3-a]pyrazin-7-yl)-thieno[2,3-d]pyrimidin-2-yl]-pyrrolidin-3-ylamino}-ethanol] | 0.043 µM | 0.13 µM | 
2 | CCCc1cc2c(N3CCn4c(nnc4C(F)(F)F)C3)nc(N3CCN(c4ccc(O)cc4)CC3)nc2s1 [Example 1-38, 4-{4-[6-Propyl-4-(3-trifluoromethyl-5,6-dihydro-8H-[1,2,4]triazolo[4,3-a]pyrazin-7-yl)-thieno[2,3-d]pyrimidin-2-yl]-piperazin-1-yl}-phenol] | 0.18 µM | 0.1 µM | 
3 | CCCc1cc2c(N3CCn4c(nnc4C(F)(F)F)C3)nc(N3CCn4cnnc4C3)nc2s1 [Example 1-75, 7-[2-(5,6-Dihydro-8H-[1,2,4]triazolo[4,3-a]pyrazin-7-yl)-6-propyl-thieno[2,3-d]pyrimidin-4-yl]-3-trifluoromethyl-5,6,7,8-tetrahydro-[1,2,4]triazolo[4,3-a]pyrazine] | 0.007 µM | 0.032 µM | 
4 | CCCc1cc2c(N3CCn4c(nnc4C(F)(F)F)C3)nc(COc3ccccc3C(=O)O)nc2s1 [Example 4-25, 2-[6-Propyl-4-(3-trifluoromethyl-5,6-dihydro-8H-[1,2,4]triazolo[4,3-a]pyrazin-7-yl)thieno[2,3-d]pyrimidin-2-ylmethoxy]benzoic acid] | 1.9 µM | 0.353 µM | 
5 | CCCc1cc2c(N3CCn4c(nnc4C(F)(F)F)C3)nc(OCCNC(=O)CS(C)(=O)=O)nc2s1 [Example 3-66, 2-Methanesulfonyl-N-{2-[6-propyl-4-(3-trifluoromethyl-5,6-dihydro-8H-[1,2,4]triazolo[4,3-a]pyrazin-7-yl)-thieno[2,3-d]pyrimidin-2-yloxy]-ethyl}-acetamide] | 0.07 µM | 0.15 µM | 
6 | CCCc1cc2c(N3CCn4c(nnc4C(F)(F)F)C3)nc(COC(=O)c3ccccc3)nc2s1 [Example 4-22, Benzoic Acid 6-propyl-4-(3-trifluoromethyl-5,6-dihydro-8H-[1,2,4]triazolo[4,3-a]pyrazin-7-yl)thieno[2,3-d]pyrimidin-2-ylmethyl ester] | 1.6 µM | 0.85 µM | 
7 | CCCc1cc2c(N3CCn4c(nnc4C(F)(F)F)C3)nc(Oc3ccc(CC(=O)O)cc3)nc2s1 [Example 3-40, {4-[6-Propyl-4-(3-trifluoromethyl-5,6-dihydro-8H-[1,2,4]triazolo[4,3-a]pyrazin-7-yl)-thieno[2,3-d]pyrimidin-2-yloxy]-phenyl}-acetic acid] | 1.2 µM | 0.23 µM | 
8 | CCCc1cc2c(N3CCn4c(C)nnc4C3)nc(OCC(CO)CO)nc2s1 [Example 6-18, 2-[4-(3-Methyl-5,6-dihydro-8H-[1,2,4]triazolo[4,3-a]pyrazin-7-yl)-6-propyl-thieno[2,3-d]pyrimidin-2-yloxymethyl]-propane-1,3-diol] | 0.3 µM | 0.67 µM | 
9 | CCCc1cc2c(N3CCn4c(nnc4C(F)(F)F)C3)nc(OCCCO)nc2s1 [Example 3-10, 3-[6-Propyl-4-(3-trifluoromethyl-5,6-dihydro-8H-[1,2,4]triazolo[4,3-a]pyrazin-7-yl)-thieno[2,3-d]pyrimidin-2-yloxy]-propan-1-ol] | 0.064 µM | 0.14 µM | 
10 | CCCc1cc2c(N3CCn4c(nnc4C(F)(F)F)C3)nc(N3CCCC3CO)nc2s1 (centres unmarked) [Example 1-30, {1-[6-Propyl-4-(3-trifluoromethyl-5,6-dihydro-8H-[1,2,4]triazolo[4,3-a]pyrazin-7-yl)-thieno[2,3-d]pyrimidin-2-yl]-pyrrolidin-2-yl}-methanol] | 0.09 µM | 0.066 µM | 
11 | CCCc1cc2c(N3CCn4c(nnc4C(F)(F)F)C3)nc(N3CC[C@@H](C(=O)OC(C)C)C3)nc2s1 [Example 1-62, (R)-1-[6-Propyl-4-(3-trifluoromethyl-5,6-dihydro-8H-[1,2,4]triazolo[4,3-a]pyrazin-7-yl)-thieno[2,3-d]pyrimidin-2-yl]-pyrrolidine-3-carboxylic acid isopropyl ester] | 0.2 µM | 0.32 µM | 
12 | CCCc1cc2c(N3CCn4c(nnc4C(F)(F)F)C3)nc(N3CCN(C)CC3)nc2s1 [Example 1-3, 7-[2-(4-Methyl-piperazin-1-yl)-6-propyl-thieno[2,3-d]pyrimidin-4-yl]-3-trifluoromethyl-5,6,7,8-tetrahydro-[1,2,4]triazolo[4,3-a]pyrazine] | 0.164 µM | 0.092 µM | 
13 | CCCc1cc2c(N3CCn4c(nnc4C(F)(F)F)C3)nc(Oc3ccccc3)nc2s1 [Example 3-28, 7-(2-Phenoxy-6-propyl-thieno[2,3-d]pyrimidin-4-yl)-3-trifluoromethyl-5,6,7,8-tetrahydro-[1,2,4]triazolo[4,3-a]pyrazine] | 9.7 µM | 0.179 µM | 
14 | CCCCc1cc2c(N3CCn4c(nnc4C(F)(F)F)C3)nc(NCCO)nc2s1 [Example 2-15, 2-[6-Butyl-4-(3-trifluoromethyl-5,6-dihydro-8H-[1,2,4]triazolo[4,3-a]pyrazin-7-yl)-thieno[2,3-d]pyrimidin-2-ylamino]-ethanol] | 0.223 µM | 0.24 µM | 
15 | CCCc1cc2c(N3CCn4c(nnc4C(F)(F)F)C3)nc(N3CC[C@H](NS(C)(=O)=O)C3)nc2s1 [Example 1-113, N-{(S)-1-[6-Propyl-4-(3-trifluoromethyl-5,6-dihydro-8H-[1,2,4]triazolo[4,3-a]pyrazin-7-yl)-thieno[2,3-d]pyrimidin-2-yl]-pyrrolidin-3-yl}-methanesulfonamide] | 0.036 µM | 0.032 µM | 
16 | CCCc1cc2c(N3CCn4c(nnc4C(F)(F)F)C3)nc(Cc3nc(C(=O)OCC)cs3)nc2s1 [Example 4-57, 2-[6-Propyl-4-(3-trifluoromethyl-5,6-dihydro-8H-[1,2,4]triazolo[4,3-a]pyrazin-7-yl)-thieno[2,3-d]pyrimidin-2-ylmethyl]-thiazole-4-carboxylic acid ethyl ester] | 0.28 µM | 0.24 µM | 
17 | CCCc1cc2c(N3CCn4c(nnc4C(F)(F)F)C3)nc(N[C@H]3CCNC3)nc2s1 [Example 1-126, [6-Propyl-4-(3-trifluoromethyl-5,6-dihydro-8H-[1,2,4]triazolo[4,3-a]pyrazin-7-yl)-thieno[2,3-d]pyrimidin-2-yl]-(S)-pyrrolidin-3-yl-amine] | 0.029 µM | 0.13 µM | 
18 | CCCc1cc2c(N3CCn4c(nnc4C(F)(F)F)C3)nc(N3CCCC(C(=O)OCC)C3)nc2s1 (centres unmarked) [Example 1-45, 1-[6-Propyl-4-(3-trifluoromethyl-5,6-dihydro-8H-[1,2,4]triazolo[4,3-a]pyrazin-7-yl)-thieno[2,3-d]pyrimidin-2-yl]-piperidine-3-carboxylic acid ethyl ester] | 1 µM | 0.34 µM | 
19 | CCCc1cc2c(N3CCn4c(nnc4C(F)(F)C(F)(F)F)C3)nc(N3CCN(C)CC3)nc2s1 [Example 6-6, 7-[2-(4-Methyl-piperazin-1-yl)-6-propyl-thieno[2,3-d]pyrimidin-4-yl]-3-pentafluoroethyl-5,6,7,8-tetrahydro-[1,2,4]triazolo[4,3-a]pyrazine] |  | 0.315 µM | 49%
20 | CCCc1cc2c(N3CCn4c(nnc4C(F)(F)F)C3)nc(N3Cc4ccccc4C3)nc2s1 [Example 1-72, 7-[2-(1,3-Dihydro-isoindol-2-yl)-6-propyl-thieno[2,3-d]pyrimidin-4-yl]-3-trifluoromethyl-5,6,7,8-tetrahydro-[1,2,4]triazolo[4,3-a]pyrazine] | > 4 µM | 0.517 µM | 
21 | CCCc1cc2c(N3CCn4c(nnc4C(F)(F)F)C3)nc(Oc3cccc(N4CCNCC4)c3)nc2s1 [Example 3-45, 7-[2-(3-piperazin-1-yl-phenoxy)-6-propyl-thieno[2,3-d]pyrimidin-4-yl]-3-trifluoromethyl-5,6,7,8-tetrahydro-[1,2,4]triazolo[4,3-a]pyrazine] | > 4 µM | 1.9 µM | 
22 | CCCc1cc2c(N3CCn4c(nnc4C(F)(F)F)C3)nc(C3=N[C@H](CC(=O)O)CS3)nc2s1 [Example 4-49, {(R)-2-[6-Propyl-4-(3-trifluoromethyl-5,6-dihydro-8H-[1,2,4]triazolo[4,3-a]pyrazin-7-yl)thieno[2,3-d]pyrimidin-2-yl]-4,5-dihydro-thiazol-4-yl}acetic acid] | 0.011 µM | 0.033 µM | 
23 | CCCc1cc2c(N3CCn4c(nnc4C(F)(F)F)C3)nc(N[C@@H]3CCNC3)nc2s1 [Example 1-130, [6-Propyl-4-(3-trifluoromethyl-5,6-dihydro-8H-[1,2,4]triazolo[4,3-a]pyrazin-7-yl)-thieno[2,3-d]pyrimidin-2-yl]-(R)-pyrrolidin-3-yl-amine] | 0.132 µM | 0.32 µM | 
24 | CCCc1cc2c(N3CCn4c(nnc4C(F)(F)F)C3)nc(N3CC(O)C3)nc2s1 [Example 1-85, 1-[6-Propyl-4-(3-trifluoromethyl-5,6-dihydro-8H-[1,2,4]triazolo[4,3-a]pyrazin-7-yl)-thieno[2,3-d]pyrimidin-2-yl]-azetidin-3-ol] | 0.014 µM | 0.096 µM | 
25 | CCCc1cc2c(N3CCn4c(nnc4C(F)(F)F)C3)nc(C(=O)N3CCN(C)CC3)nc2s1 [Example 4-13, (4-Methyl-piperazin-1-yl)-[6-propyl-4-(3-trifluoromethyl-5,6-dihydro-8H-[1,2,4]triazolo[4,3-a]pyrazin-7-yl)thieno[2,3-d]pyrimidin-2-yl]methanone] | 1.8 µM | 4.92 µM | 
